Results as given in patent publication US7122666B2, “Heteroaryl-substituted pyrrole derivatives, their preparation and their therapeutic uses” (Sankyo Company, Limited, priority 1999, dated 2006).
pIC50: −log10 of the molar value.

Legend:
[1] = tested on: TNFα production in human whole blood; assay: Inhibition of the production of TNFα in vitro in human whole blood (Test Examples 1 and 1′); format: cell-based; conditions: Table 7′, lipopolysaccharide 10 μg/ml, 6 hours at 37° C., plasma TNFα by ELISA, least squares, read-out: Inhibitory Effect on TNFα Production (in vitro) IC50
Protocol: Inhibition of the Production of the Cytokines IL-1β and TNFα in Vitro in Human Whole Blood
This test was performed according to the method of Hartman, et al. [D. A. Hartman, S. J. Ochalski and R. P. Carlson; The effects of anti-inflammatory and antiallergic drugs on cytokine release after stimulation of human whole blood by lipopolysaccharide and zymosan A: Inflamm. Res., 44, 269 (1995)].
(§1) Peripheral blood samples were collected in the presence of heparin from healthy adult volunteers. 1000 μl of whole blood were added to an Eppendorf tube to which 2 μl of a dimethyl sulfoxide solution of the test compound had been added in advance, after which 10 μl of lipopolysaccharide (E. coli 026: B6 origin, Difco) were added as a stimulant (final concentration of said lipopolysaccharide: 10 μg/ml). This was mixed well and then incubated for 6 hours at 37° C. in the presence of 5% CO2. At the end of the incubation, the mixture was cooled to 4° C. to stop the reaction, followed immediately by centrifuging for 5 minutes at 14,000 rpm to separate and collect the supernatant plasma. The IL-1β and TNFα produced and released into the plasma were measured using a commercially available enzyme immunoassay (ELISA) kit [Cayman (IL-1β) and Genzyme (TNFα)]. The procedure was also repeated in the absence of test compound. The inhibitory effect [IC50 (μM)] on the production of IL-1β and TNFα was determined from the amounts of the cytokines produced in the presence and absence of the test compound.
Inhibition of the Production of the Cytokines IL-1β and TNFα In Vitro in Human Whole Blood
as §1, with “O26:” for “026:”, “plasma” for “plasma.”, “kits” for “kit”, “determined by the method of least squares” for “determined”

[2] = tested on: adjuvant-induced arthritis; assay: Activity in preventing the development of adjuvant-induced arthritis in vivo (Test Examples 4 and 4′); conditions: Table 10′; Lewis rat, oral once a day from day 0 to day 20, inhibition of swelling of injected foot on day 21
Protocol: The test was performed according to the method described by Winder et al. (Arthritis Rheum., 12, 472–482, 1969). Heat-killed dried Mycobacterium butyricum (Difco Laboratories, Lot 679123) was ground on an agate mortar, and was then suspended in dry-sterilised liquid paraffin (first grade, Wako Pure Chemical Industries, Ltd.) to make a 2 ml suspension. The resulting suspension was then sonicated and used as an adjuvant. Arthritis was induced by the intradermal injection of the adjuvant (100 μg of heat killed dried bacterium/0.05 ml of paraffin/paw) into the heel of the right hind paw of a Lewis rat (male, age 8 weeks, Japan Charles River). […] The volumes of the swollen feet (adjuvant-injected right hind foot volume—non-injected left hind foot volume) were calculated. The percent inhibition of swelling of the injected foot of the treated animals as compared to that of the control animals on day 21 was calculated as follows. […] ID50 values were calculated using this curve. […] […]

`CC1C[C@H]2C=C(c3c[nH]c(-c4ccc(F)cc4)c3-c3ccncc3)CCN2C1` (stereo partly drawn) [Example 16′, 2-(4-Fluorophenyl)-4-[(8aS)-2-methyl-1,2,3,5,6,8a-hexahydroindolizin-7-yl]-3-(pyridin-4-yl)1H-pyrrole] was tested, and the pIC50 [1] was 8.66 and the “Activity in Preventing the Development of Adjuvant-Induced Arthritis in vivo IC50” value [2] was 1.2 mg/kg.
